From patent US20180105492A1, “COMPOUNDS DERIVED FROM 3-ALKYLAMINE-1H-INDOLYL ACRYLATE AND THEIR USE IN THE TREATMENT OF NEURODEGENERATIVE DISEASES” (FUNDACION PARA LA INVESTIGACION BIOMEDICA DEL HOSPITAL …, priority 2014, published 2018) come the findings set out here.

Holding throughout (type): cell-based
Assay [1] relates to SH-SY5Y cells. Description: Neuroprotection against rotenone/oligomycin A, pre- and co-incubation model, MTT. The following applies: Homo sapiens, compound 1 μM pre-incubation 24 h and co-incubation 24 h with Rot/Olig (30/10 μM); for inhibition at 1 µM: read-out: % Protection; for viability at 1 µM: read-out: % Survival. On the procedure:
(§1) SH-SY5Y cells [ECACC 94030304], in 5 to 16 passage after defreezing were maintained in Eagle media modified by Dulbecco (DMEM) containing 15 non-essential amino acids and supplemented with 10% fetal bovine serum, 1 mM glutamine, 50 units/mL penicillin/streptomycin (obtained from GIBCO, Madrid, Spain). Cells were seeded in flasks containing supplemented media and were maintained in an incubator at 37° C. and 5% CO2. 1:4 passes were performed twice per week. For the experiments, cells were seeded in 24 well-plates at a density of 2×10^5 cells/well, or in 96 well-plates at a density of 8×10^4 cells/well. For cytotoxicity experiments, cells were treated with the compounds before confluence with DMEM media supplemented with fetal bovine serum 1%.
(§2) In order to assess cellular viability, we measured the metabolic reduction of 3-(4,5-Dimethylthiazol-2-yl)-2,5 diphenyltetrazolium bromide (MTT). MTT is an indirect assay to measure cellular viability. It is a colorimetric method based on the reduction of 3-(4,5-Dimethylthiazol-2-yl)-2,5 diphenyltetrazolium. This process is performed by the mitochondrial enzyme succinate-dehydrogenase present in metabolic active cells. Thus, the water-soluble yellow MTT (tetrazolium salt) is transformed into a insoluble purple compound (formazan). Quantity of living cells is directly proportional to the quantity of formazan (Mosmann, 1983, J Immunol Methods, 65: 55-63). […] Therefore, with this assay we can measure cellular surviving and proliferation and also, we can determine the cytotoxicity of potential neuroprotective compounds. In order to assess cellular viability in SH-SY5Y cell line, we added 30 μl/well of MTT (5 mg/mL) and after 2 h, medium was carefully removed to avoid losing the formazan and was diluted in 300 μL of DMSO. Afterwards, samples were transferred to a 96 well-plate and the absorbance was measured at 570 nm using a absorbance/fluorescence reader FluoStar optima®. Every MTT assay was performed in triplicates. Absorbance values obtained with the toxic alone were subtracted to the absorbance values obtained in basal conditions (without treatment). That result was considered as the 100% of cell death and the values obtained with the compounds in the presence of the toxic stimulus were normalized as percentages of that value. For determining the surviving percentage, those percentages of cell death were subtracted to 100.
(§3) Neuroprotection elicited by the compounds of the invention 1-16: The activation of Nrf2-ARE pathway by different compounds exerts neuroprotective effects against toxic models based on oxidative stress via the expression of cytoprotective genes. […] We evaluated the neuroprotective potential of the compounds using the human neuroblastoma cell line using the following cytotoxicity models: 1) oxidative stress induced by rotenone+oligomycin, both blockers of the electron transport chain as previously described (Halliwell, 1992, J Neurochem, 59: 1609-23, Newhouse y col., 2004, Toxicol Sci, 79: 137-46), and 2) cytotoxicity induced by the electrophilic compound Menadione. This compound produces oxidative stress after being metabolized by microsomal enzymes in the cell which produces hydroxyl radical and oxygen reactive species. As a consequence, there is a depolarization of mitochondrial membrane generating a release of apoptotic factors such as cytochrome c, and activating the caspase cascade (Loor y col., 2010, Free Radic Biol Med, 49: 1925-36, Chuang y col., 2002, Cancer Res, 62: 6246-54). Caspase 3 activation can produce the lysis of proteins and induce DNA fragmentation, leading to cell death (Gerasimenko y col., 2002, J Cell Sci, 115: 485-97).
In this model, a 24 h pre-incubation period was performed in presence of the compounds synthesized at a concentration of 1 μM. Thereafter, a 24 h co-incubation period was added, in presence of the compounds with rotenone/oligomycin A (30 μM/10 μM) mixture. After 24 h, cell viability was assessed by the MTT reduction method. […]

Assay [2] has as its system SH-SY5Y cells. Description: Neuroprotection against rotenone/oligomycin A, pre-incubation model, MTT. The following applies: Homo sapiens, compound 1 μM pre-incubation 24 h, then Rot/Olig (30/10 μM); for viability at 1 µM: read-out: % Survival. Here is the method:
as §1, §2, §3
For this study we propose a protocol in which the cells are pre-incubated with each of the derivatives at 1 μM for 24 h. After the pre-incubation period, the medium was removed and replaced by culture medium with the rotenone/oligomycin-A (30 μM and 10 μM, respectively) toxic mixture. […]

The subject of assay [3] is Nrf2 transcription factor (Nrf2-ARE). Description: Nrf2-ARE induction, luciferase activity in AREc32 (MCF7 cells stably transfected with ARE-LUC). The following applies: Homo sapiens, 24 h, basal = 1, read-out: Relative Luciferase activity (response versus basal). On the procedure:
For the study of Nrf2 transcription factor, the cellular line AREC32 was used, which is characterized for being stably transfected with the reporter gene of Luciferase linked to the ARE sequence. In the presence electrophilic compounds or oxidative stress, Nrf2 factor binds to ARE sequences, activating luciferase expression and producing a proportional quantity of luciferase. The AREc32 cells were cultured in DMEM media with glutamax, supplemented with 10% fetal bovine serum (FBS), 1% penicillin-streptomycin and 1.6% geneticine (G418) (obtained from GIBCO, Madrid, Spain). Cells were cultured in 75 cm flasks with 11 mL of specific media, incubated at 37° C. and 5% of CO2. Cells were passed every 4-6 days (1:4), whenever the confluence reached 80%. For the experiments, cells were cultured in transparent surface 96 well plates at a density of […] with 100 μL/well. After 24 h in culture, cells were treated with the compounds at different concentrations (1, 10, 30 and 60 μM) during 24 h at 37° C. and 5% CO2. In every experiment it was also included a basal variable, a variable with 10 μM tert-butyl hydroquinone (TBHQ) (positive control) and the variables of the study in a final volume of 100 μL. After an incubation of 24 h with the compounds, luciferase activity was measured by bioluminescence using the commercial kit “Luciferase assay system” (Promega E1500). For that, treatments were removed and cells were washed with 100 μL of PBS 0.1 M. After washing, 20 μL of “lysis buffer” reactive was added to each well. 10 minutes later, luminescence was measured using the multi-well reader FluoStar optima (BMG labtech).
Luminescence was measured in arbitrary units and is directly proportional to luciferase quantity in the wells, which is also directly proportional to Nrf2 transcription factor induction by the specific compound at the established concentration. Measurements were made in duplicate and values were normalized to the basal luminescence value, considered as 1.
The results of Nrf2 induction obtained for the compounds 1 to 16 are shown in Table 1 and are expressed as induction, considering 1 the non-treated cells.

Turning to `C/C=C/C(=O)Oc1ccc2[nH]cc(CCNC(C)=O)c2c1` [Compound 1, 3-(2-acetamidoethyl)-1H-indol-5-yl (E)-2-butenoate], in the assay on SH-SY5Y cells [1], the inhibition at 1 µM came to 28.8% and the viability at 1 µM was found to be 77 ± 1.3%. For the same compound, in the assay on SH-SY5Y cells [2], the percent protection against toxin-induced cell death at 1 µM is 28.5% and the viability at 1 µM amounted to 70.4 ± 4.03%. Besides, in assay [3], the fold induction at 10 µM was 2.34 ± 0.2, the fold induction at 30 µM came out at 12.1 ± 1.3 and the fold induction at 60 µM came out at 30.7 ± 1.7.
Turning to `CC(=O)NCCc1c[nH]c2ccc(OC(=O)/C=C/c3ccccc3)cc12` [Compound 2, 3-(2-acetamidoethyl)-1H-indol-5-yl cinnamate], in the assay on SH-SY5Y cells [1], the inhibition at 1 µM worked out at 48% and the viability at 1 µM was 73.7 ± 4.65%. In the assay with SH-SY5Y cells [2], the percent protection against toxin-induced cell death at 1 µM came to 34.7% and the viability at 1 µM is 72.7 ± 3.59%. In addition, in assay [3], the fold induction at 10 µM was 1.63 ± 0.2, the fold induction at 30 µM was found to be 1.78 ± 0.1 and the fold induction at 60 µM was 2.54 ± 0.3.
On to `CC(=O)NCCc1c[nH]c2ccc(OC(=O)/C=C/c3ccc(C)cc3)cc12` [Compound 3, 3-(2-acetamidoethyl)-1H-indol-5-yl (E)-3-(4-methylphenyl)acrylate], for which, in the assay on SH-SY5Y cells [1], the inhibition at 1 µM came to 55.1% and the viability at 1 µM was determined as 76.4 ± 3.89%. Also, in the assay on SH-SY5Y cells [2], the percent protection against toxin-induced cell death at 1 µM is 20.5% and the viability at 1 µM is 67 ± 3.21%. Besides, in assay [3], the fold induction at 10 µM is 1.26 ± 0.1, the fold induction at 30 µM turned out to be 2.03 ± 0.1 and the fold induction at 60 µM was 3.26 ± 0.3.
Turning to `COc1ccccc1/C=C/C(=O)Oc1ccc2[nH]cc(CCNC(C)=O)c2c1` [Compound 4, 3-(2-acetamidoethyl)-1H-indol-5-yl (E)-3-(2-methoxyphenyl)acrylate], in the assay on SH-SY5Y cells [1], the inhibition at 1 µM turned out to be 28.1% and the viability at 1 µM turned out to be 69.9 ± 4.17%. In the assay on SH-SY5Y cells [2], the percent protection against toxin-induced cell death at 1 µM amounted to 19% and the viability at 1 µM was 67.1 ± 2.61%. In assay [3], the fold induction at 10 µM stood at 1.67 ± 0.1, the fold induction at 30 µM was 2.01 ± 0.1 and the fold induction at 60 µM worked out at 2.53 ± 0.1.
Take `COc1cccc(/C=C/C(=O)Oc2ccc3[nH]cc(CCNC(C)=O)c3c2)c1` [Compound 5, 3-(2-acetamidoethyl)-1H-indol-5-yl (E)-3-(3-methoxyphenyl)acrylate]: in the assay on SH-SY5Y cells [1], the inhibition at 1 µM came to 57.6% and the viability at 1 µM was 78.7 ± 4.37%. Moreover, in the assay on SH-SY5Y cells [2], the percent protection against toxin-induced cell death at 1 µM worked out at 27.1% and the viability at 1 µM stood at 70.2 ± 2.42%. Besides, in assay [3], the fold induction at 10 µM was 1.39 ± 0.1, the fold induction at 30 µM was determined as 1.63 ± 0.2 and the fold induction at 60 µM amounted to 2.09 ± 0.2.
Turning to `COc1ccc(/C=C/C(=O)Oc2ccc3[nH]cc(CCNC(C)=O)c3c2)cc1` [Compound 6, 3-(2-acetamidoethyl)-1H-indol-5-yl (E)-3-(4-methoxyphenyl)acrylate], in the assay on SH-SY5Y cells [1], the inhibition at 1 µM came out at 44.1% and the viability at 1 µM was 71.6 ± 3.94%. In addition, in the assay on SH-SY5Y cells [2], the percent protection against toxin-induced cell death at 1 µM was found to be 29.8% and the viability at 1 µM turned out to be 70 ± 3.04%. Moreover, in assay [3], the fold induction at 10 µM stood at 2.02 ± 0.2, the fold induction at 30 µM came to 3.4 ± 0.3 and the fold induction at 60 µM was 4.62 ± 0.4.
Turning to `CC(=O)NCCc1c[nH]c2ccc(OC(=O)/C=C/c3ccc(O)cc3)cc12` [Compound 7, 3-(2-acetamidoethyl)-1H-indol-5-yl (E)-3-(4-hydroxyphenyl)acrylate], in the assay on SH-SY5Y cells [1], the inhibition at 1 µM came to 39.8% and the viability at 1 µM turned out to be 79.7 ± 2.37%. Besides, in the assay on SH-SY5Y cells [2], the percent protection against toxin-induced cell death at 1 µM came to 32.5% and the viability at 1 µM was determined as 71.5 ± 4.92%. In addition, in assay [3], the fold induction at 10 µM was 0.95 ± 0.1, the fold induction at 30 µM is 1.09 ± 0.1 and the fold induction at 60 µM is 1.57 ± 0.1.
In the case of `COc1cc(/C=C/C(=O)Oc2ccc3[nH]cc(CCNC(C)=O)c3c2)ccc1O` [Compound 8, 3-(2-acetamidoethyl)-1H-indol-5-yl (E)-3-(4-hydroxy-3-methoxyphenyl)acrylate], in the assay with SH-SY5Y cells [1], the inhibition at 1 µM stood at 41.7% and the viability at 1 µM was 81.1 ± 1.71%. In the assay on SH-SY5Y cells [2], the percent protection against toxin-induced cell death at 1 µM is 37% and the viability at 1 µM turned out to be 74 ± 3.13%. In assay [3], the fold induction at 10 µM came out at 1.11 ± 0.1, the fold induction at 30 µM was found to be 1.83 ± 0.1 and the fold induction at 60 µM is 2.36 ± 0.1.
`CC(=O)NCCc1c[nH]c2ccc(OC(=O)/C=C/c3ccc(F)cc3)cc12` [Compound 9, 3-(2-acetamidoethyl)-1H-indol-5-yl (E)-3-(4-fluorophenyl)acrylate]: in the assay with SH-SY5Y cells [1], the inhibition at 1 µM stood at 40.5% and the viability at 1 µM was found to be 69.6 ± 2.63%. Moreover, in the assay with SH-SY5Y cells [2], the percent protection against toxin-induced cell death at 1 µM is 21.5% and the viability at 1 µM stood at 67.4 ± 2.13%. Besides, in assay [3], the fold induction at 10 µM was found to be 1.92 ± 0.2, the fold induction at 30 µM was determined as 2.27 ± 0.2 and the fold induction at 60 µM came to 4.21 ± 0.6.
`CC(=O)NCCc1c[nH]c2ccc(OC(=O)/C=C/c3ccc(Br)cc3)cc12` [Compound 10, 3-(2-acetamidoethyl)-1H-indol-5-yl (E)-3-(4-bromophenyl)acrylate]: in the assay on SH-SY5Y cells [1], the inhibition at 1 µM worked out at 40.8% and the viability at 1 µM amounted to 70.4 ± 2.21%. Further, in the assay with SH-SY5Y cells [2], the percent protection against toxin-induced cell death at 1 µM came to 30.2% and the viability at 1 µM was determined as 71.1 ± 2.61%. Moreover, in assay [3], the fold induction at 10 µM came out at 1.53 ± 0.2, the fold induction at 30 µM came out at 3.12 ± 0.5 and the fold induction at 60 µM came to 13.3 ± 2.1.
As to `COc1ccc2[nH]cc(CCNC(C)=O)c2c1` [Melatonin, reference compound], in the assay on SH-SY5Y cells [1], the inhibition at 1 µM worked out at 31.1% and the viability at 1 µM was 68.3 ± 4.27%. Also, in the assay with SH-SY5Y cells [2], the percent protection against toxin-induced cell death at 1 µM was 31.6% and the viability at 1 µM amounted to 71.8 ± 2.81%.
